Data reported in patent US9751842B2, “Phthalazine derivatives” (Merck Patent GmbH, priority 2013, dated 2017).

Assays:
[1] = target: T1, GST-tagged Tankyrase-2 (873-1166 aa) (Homo sapiens, UniProt Q9H2K2); experiment: Tankyrase 2 autoparsylation HTRF enzyme assay; assay type: biochemical; settings: HTRF autoparsylation, 90 min at 30° C; read-out: IC50 TNKS2 enzyme assay
T1 construct: GST-tagged Tankyrase-2 (873-1166 aa)
Method: Biochemical Activity Testing of Tankyrase 1 and 2: Autoparsylation Assay
The autoparsylation assay is run in two steps: the enzymatic reaction in which GST-tagged Tankyrase-1, resp Tankyrase-2 transferred biotinylated ADP-ribose to itself from biotinylated NAD as co-substrate and the detection reaction where a time resolved FRET between cryptate labelled anti-GST bound to the GST tag of the enzyme and Xlent® labelled-streptavidin bound the biotin-parsylation residue is analysed. The autoparsylation activity was detectable directly via the increase in HTRF signal.
The autoparsylation assay is performed as 384-well HTRF® (Cisbio, Codolet, France) assay format in Greiner low volume nb 384-well microtiter plates and is used for high throughput screen. 250 nM GST-tagged Tankyrase-1 (1023-1327 aa), respectively about 250 nM GST-tagged Tankyrase-2 (873-1166 aa) and 5 μM bio-NAD (Biolog, Life science Inst., Bremen, Germany) as co-substrate are incubated in a total volume of 5 μl (50 mM HEPES, 4 mM Mg-chloride, 0.05% Pluronic F-68, 1.4 mM DTT, 0.5% DMSO, pH 7.7) in the absence or presence of the test compound (10 dilution concentrations) for 90 min at 30° C. The reaction is stopped by the addition of 1 μl 50 mM EDTA solution. 2 μl of the detection solution (1.6 μM SA-Xlent® (Cisbio, Codolet, France), 7.4 nM Anti-GST-K® (Eu-labelled anti-GST, Cisbio, Codolet, France) in 50 mM HEPES, 800 mM KF, 0.1° A. BSA, 20 mM EDTA, 0.1% CHAPS, pH 7.0) are added. After 1 h incubation at room temperature the HTRF is measured with an Envision multimode reader (Perkin Elmer LAS Germany GmbH) at excitation wavelength 340 nm (laser mode) and emission wavelengths 615 nm and 665 nm. The ratio of the emission signals is determined. The full value used is the inhibitor-free reaction. The pharmacological zero value used is XAV-939 (Tocris) in a final concentration of 5 μM. The inhibitory values (IC50) are determined using either the program Symyx Assay Explorer® or Condosseo® from GeneData.

[2] = tested on: Tankyrase (Axin2 level in DLD1 cells); experiment: Cellular inhibition of Tankyrase, Axin2 Luminex assay in DLD1 cells; assay type: cell-based; settings: Homo sapiens, DLD-1, 24 hours, Axin2 level increase, read-out: IC50 Cell assay
Method: Measurement of Cellular Inhibition of Tankyrase
Since Tankyrases have been described to modulate cellular level of Axin2 (Huang et al., 2009; Nature) the increase of Axin2 level is used as read-out for determination of cellular inhibition of Tankyrases in a Luminex based assay.
Cells of the colon carcinoma cell line DLD1 are plated in 96 well plates with 1.5×10^4 cells per well. Next day, cells are treated with a serial dilution of test compound in seven steps as triplicates with a final DMSO concentration of 0.3%. After 24 hours, cells are lysed in lysis buffer (20 mM Tris/HCl pH 8.0, 150 mM NaCl, 1% NP40, 10% Glycerol) and lysates are cleared by centrifugation through a 96 well filter plate (0.65 μm). Axin2 protein is isolated from cell lysates by incubation with a monoclonal anti-Axin2 antibody (R&D Systems #MAB6078) that is bound to fluorescent carboxybeads. Then, bound Axin2 is specifically detected with a polyclonal anti-Axin2 antibody (Cell Signaling #2151) and an appropriate PE-fluorescent secondary antibody. The amount of isolated Axin2 protein is determined in a Luminex^200 machine (Luminex Corporation) according to the manufacturer's instruction by counting 100 events per well. Inhibition of Tankyrase by test compounds results in higher levels of Axin2 which directly correlates with an increase of detectable fluorescence. As controls cells are treated with solvent alone (neutral control) and with a Tankyrase reference inhibitor IWR-2 (3E-06 M) which refers as control for maximum increase of Axin2. For analysis, the obtained data are normalized against the untreated solvent control and fitted for determination of the EC50 values using the Assay Explorer software (Accelrys).

His-tagged Parp-1 = target: T2, His-tagged Parp-1 (Homo sapiens, UniProt P09874); experiment: PARP-1 autoparsylation HTRF assay; assay type: biochemical; settings: 150 min at 23° C
T2 construct: purchased Enzo Life Sciences GmbH, Lörrach, Germany
T2 sequence (P09874 whole entry): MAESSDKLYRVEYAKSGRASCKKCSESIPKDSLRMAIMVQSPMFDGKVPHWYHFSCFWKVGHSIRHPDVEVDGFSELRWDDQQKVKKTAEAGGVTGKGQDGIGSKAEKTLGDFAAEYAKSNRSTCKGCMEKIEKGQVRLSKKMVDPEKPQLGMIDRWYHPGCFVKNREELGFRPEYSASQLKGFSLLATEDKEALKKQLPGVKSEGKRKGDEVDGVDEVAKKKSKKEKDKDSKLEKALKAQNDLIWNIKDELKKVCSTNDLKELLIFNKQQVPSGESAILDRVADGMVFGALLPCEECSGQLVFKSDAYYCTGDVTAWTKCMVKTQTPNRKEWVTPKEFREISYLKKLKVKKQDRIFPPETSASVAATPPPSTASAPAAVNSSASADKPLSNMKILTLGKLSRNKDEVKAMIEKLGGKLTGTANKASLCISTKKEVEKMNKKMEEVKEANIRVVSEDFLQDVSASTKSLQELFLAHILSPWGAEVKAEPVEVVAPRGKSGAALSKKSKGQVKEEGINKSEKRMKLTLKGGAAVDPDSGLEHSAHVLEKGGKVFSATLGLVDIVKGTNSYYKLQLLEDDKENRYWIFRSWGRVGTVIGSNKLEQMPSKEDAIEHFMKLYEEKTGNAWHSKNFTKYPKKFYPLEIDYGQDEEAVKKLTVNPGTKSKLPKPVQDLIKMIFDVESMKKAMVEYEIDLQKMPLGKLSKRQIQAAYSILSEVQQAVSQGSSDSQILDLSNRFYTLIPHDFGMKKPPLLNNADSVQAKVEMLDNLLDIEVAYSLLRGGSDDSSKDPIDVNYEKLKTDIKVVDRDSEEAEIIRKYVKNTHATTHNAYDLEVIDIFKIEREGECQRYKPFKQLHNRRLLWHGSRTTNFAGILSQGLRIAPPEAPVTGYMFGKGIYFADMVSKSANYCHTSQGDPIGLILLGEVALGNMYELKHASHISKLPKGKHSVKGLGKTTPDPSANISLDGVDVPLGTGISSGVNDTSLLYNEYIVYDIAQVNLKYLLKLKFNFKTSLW
Description: Description of the PARP1 Assay
Biochemical Activity Testing of PARP-1: Autoparsylation Assay
The autoparsylation assay is run in two steps: the enzymatic reaction in which His-tagged Parp-1 transfers biotinylated ADP-ribose/ADP-ribose to itself from biotinylated NAD/NAD as co-substrate and the detection reaction where a time resolved FRET between cryptate labelled anti-His antibody bound to the His tag of the enzyme and Xlent® labelled-streptavidin bound the biotin parsylation residue is analysed. The autoparsylation activity is detectable directly via the increase in HTRF signal.
The autoparsylation assay is performed as 384-well HTRF® (Cisbio, Codolet, France) assay format in Greiner low volume nb 384-well microtiter plates. 35 nM His-tagged Parp-1 (human, recombinant, Enzo Life Sciences GmbH, Lörrach, Germany) and a mixture of 125 nM bio-NAD (Biolog, Life science Inst., Bremen, Germany) and 800 nM NAD as co-substrate are incubated in a total volume of 6 μl (100 mM Tris/HCl, 4 mM Mg-chloride, 0.01% IGEPAL® CA630, 1 mM DTT, 0.5% DMSO, pH 8, 13 ng/μl activated DNA (BPS Bioscience, San Diego, US)) in the absence or presence of the test compound (10 dilution concentrations) for 150 min at 23° C. The reaction is stopped by the addition of 4 μl of the Stop/detection solution (70 nM SA-Xlent® (Cisbio, Codolet, France), 2.5 nM Anti-His-K® (Eu-labelled anti-His, Cisbio, Codolet, France) in 50 mM HEPES, 400 mM KF, 0.1% BSA, 20 mM EDTA, pH 7.0). After 1 h incubation at room temperature the HTRF is measured with an Envision multimode reader (Perkin Elmer LAS Germany GmbH) at excitation wavelength 340 nm (laser mode) and emission wavelengths 615 nm and 665 nm. The ratio of the emission signals is determined. The full value used is the inhibitor-free reaction. The pharmacological zero value used is Olaparib (LClabs, Woburn, US) in a final concentration of 1 μM. The inhibitory values (IC50) are determined using either the program Symyx Assay Explorer® or Condosseo® from GeneData.

T1 sequence (Q9H2K2 873-1166): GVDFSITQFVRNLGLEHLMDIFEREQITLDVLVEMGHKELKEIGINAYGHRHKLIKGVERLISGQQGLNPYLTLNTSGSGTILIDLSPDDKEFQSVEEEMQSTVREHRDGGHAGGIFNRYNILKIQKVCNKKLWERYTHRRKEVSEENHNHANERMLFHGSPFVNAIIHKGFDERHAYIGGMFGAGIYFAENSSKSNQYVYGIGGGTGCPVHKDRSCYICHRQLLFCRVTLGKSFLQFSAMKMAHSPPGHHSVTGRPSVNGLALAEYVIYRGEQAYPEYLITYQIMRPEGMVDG

Structure (SMILES) | IC50 [1] | IC50 [2] | IC50 (His-tagged Parp-1)
O=C(Cc1ccccc1)Nc1nncc2ccccc12 [Compound A1, 2-phenyl-N-phthalazin-1-yl-acetamide] | 0.3 to 3 µM | 3 to 50 µM | 3 to 50 µM
COc1cccc(CC(=O)Nc2nncc3ccccc23)c1 [Compound A2, 2-(3-methoxyphenyl)-N-phthalazin-1-yl-acetamide] | 0.3 to 3 µM | 3 to 50 µM | 3 to 50 µM
COc1ccc(CC(=O)Nc2nncc3ccccc23)cc1 [Compound A3, 2-(4-methoxyphenyl)-N-phthalazin-1-yl-acetamide] | 0.3 to 3 µM | 3 to 50 µM | 3 to 50 µM
CCOc1ccc(CC(=O)Nc2nncc3ccccc23)cc1 [Compound A4, 2-(4-ethoxyphenyl)-N-phthalazin-1-yl-acetamide] | 0.3 to 3 µM | 3 to 50 µM | 3 to 50 µM

The remaining lines, values ahead:

IC50 [1] | IC50 [2] | IC50 (His-tagged Parp-1) | Structure (SMILES)
< 0.3 µM | 3 to 50 µM | 3 to 50 µM | O=C(CCC1CCCC1)Nc1nncc2ccccc12 [Compound A15, 3-cyclopentyl-N-phthalazin-1-yl-propionamide]
< 0.3 µM | 3 to 50 µM | 3 to 50 µM | O=C(CCc1ccccc1Cl)Nc1nncc2ccccc12 [Compound A16, 3-(2-chloro-phenyl)-N-phthalazin-1-yl-propionamide]
0.3 to 3 µM | 3 to 50 µM | 0.3 to 3 µM | Cc1cccc2cnnc(NC(=O)Cc3ccccc3)c12 [Compound A18, N-(8-methyl-phthalazin-1-yl)-2-phenyl-acetamide]
0.3 to 3 µM | 3 to 50 µM | 0.3 to 3 µM | COc1ccc(CC(=O)Nc2nncc3cccc(C)c23)cc1 [Compound A20, 2-(4-methoxy-phenyl)-N-(8-methyl-phthalazin-1-yl)-acetamide]
